The results in this text go back to ChEMBL document CHEMBL1148838, “Synthesis and antibacterial evaluation of a novel series of rifabutin-like spirorifamycins” (2007).

≈ marks a conversion by molar mass, not a printed value.

Holding throughout (assay type): functional
Assay [1] concerns Staphylococcus aureus. Put plainly: Antibacterial activity against intermediate rifamycin-resistant Staphylococcus aureus CB372 with rpoB Asp471Tyr mutation.
The test system of assay [2] is Staphylococcus aureus. The experiment in a line: Antibacterial activity against rifamycin-sensitive Staphylococcus aureus CB190.
Assay [3] relates to Staphylococcus aureus. The experiment in a line: Antibacterial activity against rifamycin-resistant Staphylococcus aureus CB370 with rpoB His481Tyr mutation.
Assay [4] has as its system Staphylococcus aureus. Put plainly: Antibacterial activity against Staphylococcus aureus ATCC 6538 induced-septicemia in sc dosed mouse. The conditions noted are these: ATCC 6538, sc.
Assay [5] deals with Staphylococcus aureus. The experiment in a line: Antibacterial activity against Staphylococcus aureus ATCC 6538 induced-septicemia in po dosed mouse. The conditions noted are these: ATCC 6538, po.

Regarding `CO[C@H]1/C=C/O[C@@]2(C)Oc3c(C)c(O)c4c(c3C2=O)C2=NC3(CCN(C)C3)CNC2=C(NC(=O)/C(C)=C\C=C\[C@H](C)[C@H](O)[C@@H](C)[C@@H](O)[C@@H](C)[C@H](OC(C)=O)[C@@H]1C)C4=O` (some centres undefined), the MIC (in general, the lowest concentration that inhibits growth of the organism) in assay [1] was 0.98 µg/mL (≈ 1.22 µM); in assay [2] it was 0.013 µg/mL (≈ 0.0162 µM); in assay [3] it was more than 62.5 µg/mL.

As for `CO[C@H]1/C=C/O[C@@]2(C)Oc3c(C)c(O)c4c(c3C2=O)C2=NC3(CCN(Cc5cnc6ccccc6c5)C3)CNC2=C(NC(=O)/C(C)=C\C=C\[C@H](C)[C@H](O)[C@@H](C)[C@@H](O)[C@@H](C)[C@H](OC(C)=O)[C@@H]1C)C4=O` (some centres undefined), the MIC is 7.81 µg/mL (≈ 8.38 µM) in assay [1], 0.063 µg/mL (≈ 0.0676 µM) in assay [2] and more than 62.5 µg/mL in assay [3].

On to `CO[C@H]1/C=C/O[C@@]2(C)Oc3c(C)c(O)c4c(c3C2=O)C2=NC3(CCN(C(=O)OC(C)(C)C)CC3)CNC2=C(NC(=O)/C(C)=C\C=C\[C@H](C)[C@H](O)[C@@H](C)[C@@H](O)[C@@H](C)[C@H](OC(C)=O)[C@@H]1C)C4=O`, for which the MIC in assay [1] was 7.81 µg/mL (≈ 8.63 µM); in assay [2] it was 0.026 µg/mL (≈ 0.0287 µM); in assay [3], more than 62.5 µg/mL.

Turning to `CO[C@H]1/C=C/O[C@@]2(C)Oc3c(C)c(O)c4c(c3C2=O)C2=NC3(CCN(CC(C)C)CC3)CNC2=C(NC(=O)/C(C)=C\C=C\[C@H](C)[C@H](O)[C@@H](C)[C@@H](O)[C@@H](C)[C@H](OC(C)=O)[C@@H]1C)C4=O`, the MIC in assay [1] was 7.81 µg/mL (≈ 9.07 µM); in assay [2] it was 0.063 µg/mL (≈ 0.0732 µM); in assay [3], more than 62.5 µg/mL. Moreover, the ED50 – broadly, the dose that gives a 50% effect, or the effect in half of the subjects – in assay [4] was 0.6 mg/kg; in assay [5], less than 0.1 mg/kg.

With `CO[C@H]1/C=C/O[C@@]2(C)Oc3c(C)c(O)c4c(c3C2=O)C2=NC3(CCN(Cc5cnc6ccccc6c5)CC3)CNC2=C(NC(=O)/C(C)=C\C=C\[C@H](C)[C@H](O)[C@@H](C)[C@@H](O)[C@@H](C)[C@H](OC(C)=O)[C@@H]1C)C4=O`, the results for the MIC in assay [1], in assay [2] and in assay [3] were 0.98 µg/mL (≈ 1.04 µM), 0.063 µg/mL (≈ 0.0666 µM) and 15.6 µg/mL (≈ 16.5 µM), respectively. The ED50 was determined as 0.6 mg/kg in assay [4] and 5 mg/kg in assay [5].

As for `CO[C@H]1/C=C/O[C@@]2(C)Oc3c(C)c(O)c4c(c3C2=O)C2=NC3(CCN(CC(C)C)C3)CNC2=C(NC(=O)/C(C)=C\C=C\[C@H](C)[C@H](O)[C@@H](C)[C@@H](O)[C@@H](C)[C@H](OC(C)=O)[C@@H]1C)C4=O` (some centres undefined), the MIC was more than 62.5 µg/mL in assay [1], 0.063 µg/mL (≈ 0.0744 µM) in assay [2] and 31.3 µg/mL (≈ 37 µM) in assay [3].

Consider `CO[C@H]1/C=C/O[C@@]2(C)Oc3c(C)c(O)c4c(c3C2=O)C2=NC3(CCN(C)CC3)CNC2=C(NC(=O)/C(C)=C\C=C\[C@H](C)[C@H](O)[C@@H](C)[C@@H](O)[C@@H](C)[C@H](OC(C)=O)[C@@H]1C)C4=O`, for which the MIC was 1.95 µg/mL (≈ 2.38 µM) in assay [1], 0.016 µg/mL (≈ 0.0195 µM) in assay [2] and more than 62.5 µg/mL in assay [3]. Moreover, the ED50 in assay [4] was 0.3 mg/kg; in assay [5], more than 10 mg/kg.

On to `CO[C@H]1/C=C/O[C@@]2(C)Oc3c(C)c(O)c4c(c3C2=O)C2=NC3(CCN(Cc5ccccc5)CC3)CNC2=C(NC(=O)/C(C)=C\C=C\[C@H](C)[C@H](O)[C@@H](C)[C@@H](O)[C@@H](C)[C@H](OC(C)=O)[C@@H]1C)C4=O`, for which the MIC amounted to 1.95 µg/mL (≈ 2.18 µM) in assay [1], 0.003 µg/mL (≈ 0.00335 µM) in assay [2] and 32 µg/mL (≈ 35.8 µM) in assay [3].

For the compound `C=CCN1CCC2(CC1)CNC1=C3NC(=O)/C(C)=C\C=C\[C@H](C)[C@H](O)[C@@H](C)[C@@H](O)[C@@H](C)[C@H](OC(C)=O)[C@H](C)[C@@H](OC)/C=C/O[C@@]4(C)Oc5c(C)c(O)c(c(c5C4=O)C1=N2)C3=O`, the MIC is 15.6 µg/mL (≈ 18.5 µM) in assay [1], 0.006 µg/mL (≈ 0.0071 µM) in assay [2] and more than 62.5 µg/mL in assay [3].

Consider `CO[C@H]1/C=C/O[C@@]2(C)Oc3c(C)c(O)c4c(c3C2=O)C2=NC3(CCN(C(=O)OC(C)(C)C)C3)CNC2=C(NC(=O)/C(C)=C\C=C\[C@H](C)[C@H](O)[C@@H](C)[C@@H](O)[C@@H](C)[C@H](OC(C)=O)[C@@H]1C)C4=O` (some centres undefined), for which the minimal inhibitory concentration (MIC) in assay [1] was 7.81 µg/mL (≈ 8.77 µM); in assay [2], 0.016 µg/mL (≈ 0.018 µM); in assay [3], more than 62.5 µg/mL.

Regarding `CO[C@H]1/C=C/O[C@@]2(C)Oc3c(C)c(O)c4c(c3C2=O)C2=NC3(CCN(Cc5ccccc5)C3)CNC2=C(NC(=O)/C(C)=C\C=C\[C@H](C)[C@H](O)[C@@H](C)[C@@H](O)[C@@H](C)[C@H](OC(C)=O)[C@@H]1C)C4=O` (some centres undefined), the figures for the MIC in assay [1], in assay [2] and in assay [3] were 3.91 µg/mL (≈ 4.44 µM), 0.031 µg/mL (≈ 0.0352 µM) and more than 62.5 µg/mL, respectively.

Consider `CO[C@H]1/C=C/O[C@@]2(C)Oc3c(C)c(O)c4c(c3C2=O)C2=NC3(CCN(CC(C)C)CC3)NC2=C(NC(=O)/C(C)=C\C=C\[C@H](C)[C@H](O)[C@@H](C)[C@@H](O)[C@@H](C)[C@H](OC(C)=O)[C@@H]1C)C4=O` [RIFABUTIN], for which the MIC in assay [1] is 15.6 µg/mL (≈ 18.4 µM); in assay [2], 0.031 µg/mL (≈ 0.0366 µM); in assay [3], more than 62.5 µg/mL. The ED50 is less than 0.1 mg/kg in assay [4] and 0.6 mg/kg in assay [5].
